Read-outs that look alike come from different tables or passages of the source.
Tests used:
human PI3Kα protein = target: T1, human PI3Kα protein (Homo sapiens, UniProt P42336); assay: PI3Kα enzyme assay (ADP-Glo kinase assay); type: biochemical; conditions: 3 nM PI3Kα, 50 μM PIP2, 100 μM ATP
T1 construct: purchased Carna Biosciences, Inc; host or cells: Baculovirus expression system
Protocol: Evaluation of the PI3Kα inhibitory activity of the compound of the present invention was carried out according to the method as described below.
For the PI3Kα enzyme assay, biotinylated product of a human PI3Kα protein produced using a Baculovirus expression system (Carna Biosciences, Inc.) was used. Further, for the detection of the enzyme activity, an ADP-Glo kinase assay (PROMEGA Corporation) was used.
10 μL of a reaction solution (3 nM PI3Kα, 40 mM Tris-HCl, 20 mM MgCl2, 0.1% BSA, pH 7.5) including the human PI3Kα protein and a test compound at a predetermined concentration was incubated at room temperature for 15 minutes. Thereafter, 5 μL of a mixed solution of L-α-Phosphatidylinositol 4,5-diphosphate (PIP2) (SIGMA-ALDLICH) which was a substrate and ATP(SIGMA-ALDLICH) was added thereto to a final concentration of 50 μM and 100 μM, respectively, and the reaction solution was further incubated at 25° C. for 60 minutes to carry out an enzyme reaction.
After the reaction, 15 μL of an ADP-Glo reagent (PROMEGA Corporation) was added and the resulting liquid was incubated at room temperature for 60 minutes, whereby the enzyme reaction was stopped. Thereafter, after further adding 30 μL of a Kinase Detection Reagent (PROMEGA Corporation) and standing the resulting solution at room temperature for 40 minutes, ADP produced by the enzyme reaction was quantified by luminescence intensity.
For the measurement of luminescence intensity, EnVision (PerkinElmer, Inc.) was used.
(§1) The inhibitory activity of the compounds was evaluated using an IC50 (50% inhibitory concentration). The IC50 was calculated using XLfit (IDBS).

[1] = target: T2, glutathione S-transferase (GST)-fusion human ERK2 protein (Homo sapiens, UniProt P28482); assay: ERK2 enzyme assay (LabChip mobility shift); type: biochemical; conditions: 2 nM ERK2, 4.25 μM FL-Peptide 8, 43 μM ATP
T2 construct: purchased Carna Biosciences, Inc; host or cells: E. coli expression system
T2 sequence (P28482 whole entry, the tested form may be a part): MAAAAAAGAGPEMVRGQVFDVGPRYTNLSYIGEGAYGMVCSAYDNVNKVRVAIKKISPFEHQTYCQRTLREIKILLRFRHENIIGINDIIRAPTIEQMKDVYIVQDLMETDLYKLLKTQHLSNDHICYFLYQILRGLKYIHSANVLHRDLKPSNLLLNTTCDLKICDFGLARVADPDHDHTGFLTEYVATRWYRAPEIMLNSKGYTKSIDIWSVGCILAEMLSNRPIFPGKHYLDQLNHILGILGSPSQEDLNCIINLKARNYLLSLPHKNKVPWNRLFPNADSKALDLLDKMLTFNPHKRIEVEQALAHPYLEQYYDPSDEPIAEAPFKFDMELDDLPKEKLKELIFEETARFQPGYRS
Protocol: Evaluation of the ERK2 inhibitory activity of the compound of the present invention was carried out according to the method as described below.
For the ERK2 enzyme assay, a glutathione S-transferase (GST)-fusion human ERK2 protein (Carna Biosciences, Inc.) produced using an E. coli expression system was used.
12 μL of the reaction solution (2 nM ERK2, 100 mM Hepes, 10 mM MgCl2, 1.5 mM DTT, 0.003% Brij35, pH 7.5) including the ERK2 protein and a test compound at a predetermined concentration was incubatedat room temperature for 15 minutes. Thereafter, 3 μL of a mixed solution of FL-Peptide 8 (5-FAM-IPTSPITTTYFFFKKK-COOH) (Caliper Lifescience) which was a substrate and ATP(SIGMA-ALDLICH) were added thereto to a final concentration of 4.25 μM and 43 μM, respectively. The reaction solution was further incubated at 25° C. for 120 minutes to carry out an enzyme reaction.
The enzyme reaction was stopped by adding 27 μL of a reaction-stopping solution (100 mM HEPES, 11.2 mM EDTA, 5.6% Brij35, pH 7.5) including a 0.5% Coating reagent 8 (PerkinElmer, Inc.) after the reaction. Thereafter, non-phosphorylated peptides and phosphorylated peptides were separated using LabChip Ez Reader (Caliper LifeScience, Inc.) to quantify the proportion of phosphorylated peptides.
as §1

[2] = IC50 class, read-out: PI3Kα Inhibitory Activity
[3] = IC50 class, read-out: ERK2 Inhibitory Activity

T1 sequence (P42336 whole entry): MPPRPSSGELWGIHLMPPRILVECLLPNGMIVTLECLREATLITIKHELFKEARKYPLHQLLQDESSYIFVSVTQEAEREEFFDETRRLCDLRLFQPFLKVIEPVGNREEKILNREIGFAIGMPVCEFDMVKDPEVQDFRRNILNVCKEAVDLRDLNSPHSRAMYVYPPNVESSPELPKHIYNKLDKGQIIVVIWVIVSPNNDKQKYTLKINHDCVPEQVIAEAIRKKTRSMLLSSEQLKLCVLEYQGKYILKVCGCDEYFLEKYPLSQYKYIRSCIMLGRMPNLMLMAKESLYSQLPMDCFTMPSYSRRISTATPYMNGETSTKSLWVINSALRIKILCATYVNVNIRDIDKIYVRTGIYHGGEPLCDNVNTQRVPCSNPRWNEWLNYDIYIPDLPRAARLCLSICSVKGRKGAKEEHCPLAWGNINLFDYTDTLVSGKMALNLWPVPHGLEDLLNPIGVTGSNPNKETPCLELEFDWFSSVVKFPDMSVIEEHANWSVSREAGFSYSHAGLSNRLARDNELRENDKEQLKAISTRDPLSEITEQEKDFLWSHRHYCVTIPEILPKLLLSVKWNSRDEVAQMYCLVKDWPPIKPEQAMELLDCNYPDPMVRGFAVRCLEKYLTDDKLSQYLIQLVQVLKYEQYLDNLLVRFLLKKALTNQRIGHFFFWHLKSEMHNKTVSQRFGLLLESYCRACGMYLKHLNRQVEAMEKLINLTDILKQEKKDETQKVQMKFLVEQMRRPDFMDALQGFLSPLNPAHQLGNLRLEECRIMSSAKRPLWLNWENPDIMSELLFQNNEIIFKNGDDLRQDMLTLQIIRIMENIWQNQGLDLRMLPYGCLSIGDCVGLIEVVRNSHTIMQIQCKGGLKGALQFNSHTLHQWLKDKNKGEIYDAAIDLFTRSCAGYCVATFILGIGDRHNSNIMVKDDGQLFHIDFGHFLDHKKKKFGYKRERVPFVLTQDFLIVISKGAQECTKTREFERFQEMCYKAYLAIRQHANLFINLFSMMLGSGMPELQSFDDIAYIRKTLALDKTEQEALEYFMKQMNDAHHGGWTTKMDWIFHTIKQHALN
T1 sequence (P27986 whole entry partner): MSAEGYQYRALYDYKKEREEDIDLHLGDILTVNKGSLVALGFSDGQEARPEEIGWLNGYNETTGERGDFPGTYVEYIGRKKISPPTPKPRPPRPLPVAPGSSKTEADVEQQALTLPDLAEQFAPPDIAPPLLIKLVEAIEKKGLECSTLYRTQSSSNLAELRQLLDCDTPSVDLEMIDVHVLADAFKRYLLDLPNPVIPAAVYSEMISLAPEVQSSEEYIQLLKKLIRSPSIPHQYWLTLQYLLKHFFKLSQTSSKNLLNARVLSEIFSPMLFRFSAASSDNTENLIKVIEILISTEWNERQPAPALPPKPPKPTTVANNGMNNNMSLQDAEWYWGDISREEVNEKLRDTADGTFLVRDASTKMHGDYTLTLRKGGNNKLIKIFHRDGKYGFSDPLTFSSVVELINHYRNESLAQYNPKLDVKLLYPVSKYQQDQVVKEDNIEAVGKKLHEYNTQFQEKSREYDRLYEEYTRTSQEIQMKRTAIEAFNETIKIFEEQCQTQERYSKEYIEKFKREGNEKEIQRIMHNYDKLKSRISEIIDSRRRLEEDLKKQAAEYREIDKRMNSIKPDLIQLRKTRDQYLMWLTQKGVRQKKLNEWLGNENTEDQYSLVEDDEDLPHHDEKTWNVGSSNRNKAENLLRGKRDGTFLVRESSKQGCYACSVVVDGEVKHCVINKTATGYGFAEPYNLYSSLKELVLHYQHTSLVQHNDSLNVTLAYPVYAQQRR

| IC50 (human PI3Kα protein; [2]) [nM] | IC50 [1, 3] [nM] | IC50 (human PI3Kα protein; read-out: PI3Kα, IC50) [nM] | IC50 ([1]; read-out: ERK2, IC50) [nM] | Structure (SMILES) |
| --- | --- | --- | --- | --- |
| 100 to 1000 | < 100 |  |  | COc1cccc(CCCCNC(=O)Nc2ccc3ncc(-c4cn[nH]c4)cc3n2)c1 [Compound 0169] |
| 100 to 1000 | 1000 to 10000 |  |  | C#Cc1cnc2ccc(NC(=O)NC3CCCC3)nc2c1 [Compound 0017] |
| 100 to 1000 | 100 to 1000 |  |  | COC1CN(c2cnc3ccc(NC(=O)NC4CCCC4)nc3c2)C1 [Compound 0242] |
| 100 to 1000 | < 100 |  |  | O=C(Nc1ccc2ncc(-c3cn[nH]c3)cc2n1)NC1CCCc2ccccc21 (stereo not drawn) [Compound 0065] |
| < 100 | < 100 |  |  | O=C(Nc1ccc2ncc(-c3cn[nH]c3)cc2n1)NC1Cc2ccccc2C1 [Compound 0086] |
| 100 to 1000 | < 100 |  |  | O=C(Nc1ccc2ncc(-c3cnn(CCCN4CCOCC4)c3)cc2n1)N[C@@H]1CCN(Cc2ccccc2)C1 [Compound 0175] |
| 100 to 1000 | < 100 |  |  | O=C(Nc1ccc2ncc(-c3cn[nH]c3)cc2n1)NC1CC1 [Compound 0067] |
| < 100 | < 100 |  |  | Cn1cc(-c2cnc3ccc(NC(=O)NC4CCCC4)nc3c2)c(CO)n1 [Compound 0216] |
| < 100 | < 100 |  |  | O=C(Nc1ccc2ncc(-c3cnn(CCCN4CC[C@@H](F)C4)c3)cc2n1)NC1CCCC1 [Compound 0248] |
| < 100 | < 100 |  |  | COc1cc(-c2cnc3ccc(NC(=O)NC4CCCC4)nc3c2)ccn1 [Compound 0022] |
| 1000 to 10000 | 100 to 1000 |  |  | CN(C)CCCNC(=O)Nc1ccc2ncc(-c3cn[nH]c3)cc2n1 [Compound 0106] |
| < 100 | < 100 |  |  | C[C@H](CN(C)C)Cn1cc(-c2cnc3ccc(NC(=O)NC4CCCC4)nc3c2)cn1 [Compound 0244] |
| < 100 | < 100 |  |  | Cn1cc(-c2cnc3ccc(NC(=O)NC4CCCC4)nc3c2Cl)cn1 [Compound 0226] |
| 100 to 1000 | 100 to 1000 |  |  | O=C(Nc1ccc2ncc(N3CCNCC3)cc2n1)NC1CCCC1 [Compound 0013] |
| < 100 | 100 to 1000 |  |  | CC1(NC(=O)Nc2ccc3ncc(-c4cn[nH]c4)cc3n2)CCC1 [Compound 0195] |
| 100 to 1000 | < 100 |  |  | CN(CCNC(=O)Nc1ccc2ncc(-c3cn[nH]c3)cc2n1)Cc1ccccc1 [Compound 0108] |
| < 100 | 100 to 1000 |  |  | O=C(Nc1ccc2ncc(N3CC(OCCCN4CCOCC4)C3)cc2n1)NC1CCCC1 [Compound 0240] |
| < 100 | 100 to 1000 |  |  | CC1CN(c2cnc3ccc(NC(=O)NC4CCCC4)nc3c2)CCO1 (stereo not drawn) [Compound 0090] |
| 100 to 1000 | < 100 |  |  | O=C(NCCCc1ccccc1)Nc1ccc2ncc(-c3cn[nH]c3)cc2n1 [Compound 0095] |
| < 100 | 100 to 1000 |  |  | CN(C)CCn1cc(-c2cnc3ccc(NC(=O)NC4CCCC4)nc3c2)cn1 [Compound 0018] |
| 100 to 1000 | < 100 |  |  | Cn1cncc1-c1cnc2ccc(NC(=O)NC3CCCC3)nc2c1 [Compound 0238] |
| < 100 | 100 to 1000 |  |  | O=C(Nc1ccc2ncc(-c3cn[nH]c3)cc2n1)N[C@H]1CCC[C@@H]1OCc1ccccc1 [Compound 0159] |
| < 100 | 100 to 1000 |  |  | COCCNCCn1cc(-c2cnc3ccc(NC(=O)NC4CCCC4)nc3c2)cn1 [Compound 0047] |
| 1000 to 10000 | 100 to 1000 |  |  | O=C(Nc1ccc2ncc(-c3ccccc3CO)cc2n1)NC1CCCC1 [Compound 0040] |
| < 100 | < 100 |  |  | O=C(Nc1ccc2ncc(-c3ccncc3)cc2n1)NC1CCCC1 [Compound 0007] |
| 1000 to 10000 | < 100 |  |  | CC(C)(C)OC(=O)n1cc(-c2cnc3ccc(NC(=O)NC4CCCc5ccccc54)nc3c2)cn1 (stereo not drawn) [Compound 0066] |

| IC50 (human PI3Kα protein; [2]) [nM] | IC50 [1, 3] [nM] | IC50 (human PI3Kα protein; read-out: PI3Kα, IC50) [nM] | IC50 ([1]; read-out: ERK2, IC50) [nM] | Structure (SMILES) |
| --- | --- | --- | --- | --- |
| 100 to 1000 | 1000 to 10000 |  |  | COC(=O)C#Cc1cnc2ccc(NC(=O)NC3CCCC3)nc2c1 [Compound 0127] |
| < 100 | < 100 |  |  | CN(C)CCn1cc(-c2cnc3ccc(NC(=S)NC4CCCC4)nc3c2)cn1 [Compound 0209] |
| < 100 | < 100 |  |  | O=C(Nc1ccc2ncc(-c3cnn(CC4CNC4)c3)cc2n1)NC1CCCC1 [Compound 0146] |
| < 100 | < 100 |  |  | CC(C)C(C)NC(=O)Nc1ccc2ncc(-c3cn[nH]c3)cc2n1 (stereo not drawn) [Compound 0072] |
| < 100 | < 100 | 10 | 7 | O=C(Nc1ccc2ncc(-c3cn[nH]c3)cc2n1)NC1CCCC1 [Compound 0137] |
| < 100 | < 100 |  |  | O=C(Nc1ccc2ncc(-c3cnn(CCCN4CC[C@H](F)C4)c3)cc2n1)NC1CCCC1 [Compound 0247] |
| 100 to 1000 | < 100 |  |  | O=C(NCc1ccccc1)Nc1ccc2ncc(-c3cn[nH]c3)cc2n1 [Compound 0060] |
| < 100 | < 100 |  |  | C[C@@H](NC(=O)Nc1ccc2ncc(-c3cnn(CCCN4CCOCC4)c3)cc2n1)C1CCCCC1 [Compound 0181] |
| 100 to 1000 | < 100 |  |  | O=C(NCC1CC1)Nc1ccc2ncc(-c3cn[nH]c3)cc2n1 [Compound 0186] |
| 1000 to 10000 | 100 to 1000 |  |  | O=C(NCCCN1CCCCC1)Nc1ccc2ncc(-c3cn[nH]c3)cc2n1 [Compound 0202] |
| < 100 | 100 to 1000 |  |  | O=C(Nc1ccc2ncc(-c3cnn(CCN4CC5(COC5)C4)c3)cc2n1)NC1CCCC1 [Compound 0117] |
| < 100 | < 100 |  |  | CCCCCCNC(=O)Nc1ccc2ncc(-c3cn[nH]c3)cc2n1 [Compound 0057] |
| < 100 | 100 to 1000 |  |  | CCOC(=O)c1nn(C)cc1-c1cnc2ccc(NC(=O)NC3CCCC3)nc2c1 [Compound 0215] |
| 100 to 1000 | 100 to 1000 |  |  | O=C(Nc1ccc2ncc(-c3ccccc3)cc2n1)NC1CCCC1 [Compound 0006] |
| < 100 | < 100 | 11 | 7 | Cc1n[nH]cc1-c1cnc2ccc(NC(=O)NC3CCCC3)nc2c1 [Compound 0043] |
| < 100 | < 100 |  |  | CN1CC(Cn2cc(-c3cnc4ccc(NC(=O)NC5CCCC5)nc4c3)cn2)C1 [Compound 0147] |
| < 100 | 100 to 1000 |  |  | O=C(Nc1ccc2ncc(-c3nn[nH]n3)cc2n1)NC1CCCC1 [Compound 0131] |
| 100 to 1000 | 100 to 1000 |  |  | COc1cc(-c2cnc3ccc(NC(=O)NC4CCCC4)nc3c2)cnc1OC [Compound 0014] |
| 1000 to 10000 | < 100 |  |  | O=C(Nc1ccc2ncc(-c3cn[nH]c3)cc2n1)N[C@@H]1CCC[C@H]1OCc1ccccc1 [Compound 0160] |
| 1000 to 10000 | 100 to 1000 |  |  | CCOC(=O)CNC(=O)Nc1ccc2ncc(-c3cn[nH]c3)cc2n1 [Compound 0062] |
| < 100 |  | < 3 | 1220 | COc1cc(Nc2cnc3ccc(NC(=O)NC4CCCC4)nc3c2)cc(OC)c1OC [Compound 0009] |
| > 10000 | > 10000 |  |  | O=C(Nc1ccc2ncc(-c3cnn(CCN4CCOCC4)c3)cc2n1)NS(=O)(=O)c1ccccc1 [Compound 0208] |
| 100 to 1000 | < 100 |  |  | CO[C@H]1CCC[C@@H]1NC(=O)Nc1ccc2ncc(-c3cn[nH]c3)cc2n1 [Compound 0194] |
| < 100 | < 100 | 60 | < 3 | C[C@@H](NC(=O)Nc1ccc2ncc(-c3cn[nH]c3)cc2n1)C1CCCCC1 [Compound 0080] |
| < 100 | < 100 |  |  | O=C(Nc1ccc2ncc(-c3cnn(CCCCN4CCOCC4)c3)cc2n1)NC1CCCC1 [Compound 0207] |
| < 100 | < 100 |  |  | CCN1CCN(CCCn2cc(-c3cnc4ccc(NC(=O)NC5CCCC5)nc4c3)cn2)CC1 [Compound 0233] |
